This note sets out measurements from patent US20250302913A1, “LACRIPEP PROMOTES NEUROREGENERATION AND MAINTAINS EPITHELIAL PROGENITOR CELL IDENTITY” (The Regents of The University of California, priority 2022, published 2025).

This assay relates to corneal nerves of Aire KO corneas. Briefly: Corneal nerve density (GAP43, TUBB3, SP, CGRP immunolabeling). It is filed as in vivo, mouse. An excerpt:
To test for changes in innervation, corneas isolated from the four treatment groups at day 15 were immunostained for growth-associated protein 43 (GAP43), a marker of remodeling axons (25), along with two common sensory neuropeptides, substance P (SP) and calcitonin-gene related protein (CGRP). SP and CGRP are differentially expressed to carry out discrete functions: SP is released in response to trigeminal activation to modulate tear secretion and goblet cell function (26) while CGRP is involved in multiple homeostatic processes, including corneal epithelium regeneration and regulation of vasculature (27, 28). […] Thus, lacripep treatment successfully regenerates the sensory nerve supply to the inflamed cornea during disease progression.
Given nerve-epithelial interactions are essential for mediating physiological tear secretion, we next assessed innervation to corneal epithelial cell layers at 2 wks of treatment (day 15, 7 wks of age) through immunofluorescent analysis.
Next, we questioned the timing of epithelial reinnervation in response to lacripep treatment by analyzing the nerve supply at the 7 day time point (6 wks of age) through 3D imaging of intact whole mount corneas (FIG. 3A). […] Of note, the pro-regenerative cellular changes after axon injury result in neurons switching from an active, electrically transmitting state back to an electrically silent, growth-competent state (29-31), thereby likely impairing increased basal tear production at the 7 day time point for lacripep treated mice compared to untreated Aire KO controls (FIG. 1B).
For corneal whole mount staining, PFA fixed corneas were blocked and incubated in primary antibodies for 48 hr at 4° C.: Mouse anti-TUBB3 (1:300, R&D, MAB 1195), rabbit anti-GAP43 (1:400, Novus bio, NB 300-143), goat anti-CGRP (1:300, Thermo fisher, PA1-85250), and rat anti-Substance P (1:500, Millipore, MAB 356). This was followed by extensive washes in PBST before tissue was incubated in secondary antibodies overnight at 4° C.
Quantification of corneal epithelial nerve density and synapses. Tissue sections: TUBB3+ nerve density within 300 μm sections of central cornea epithelial ROI was quantified by applying Tsai's thresholding method (Moments), with integrated densities within the ROI of the thresholded image being recorded. Corneal whole mounts: The density of nerves expressing GAP43, TUBB3, or GAP43 and TUBB3 (% Area of 354 μm×396 μm) was quantified from central cornea images of whole mount cornea and plotted in a stacked bar graph to visualize the proportion of each of the three nerve types. Similarly, numbers of synapses marked by expression of GAP43, TUBB3, or GAP43 and TUBB3 were counted per respective region of central cornea (100 μm2) and plotted in a stacked bar graph. The density of GAP43+ nerves were quantified from the whole mount cornea images (354 μm×396 μm) applying Tsai's threshold as described above.
3D reconstruction of nerve fibers. Acquired confocal Z-stacks comprising epithelial and stroma were reconstructed into 3D images using Imaris image analysis software (Bitplane AG, Zurich, Switzerland). The surface of the nuclei (Hoechst) and nerves (TUBB3/GAP43/SP/CGRP) were segmented using the background subtraction threshold. Each channel was obtained separately. Touching nuclei were split by the calculated seed points inside each area.

Regarding “Ac-KQFIENGSEFAQKLLKKFSLLKPWA-NH2 [lacripep, amino terminus acetylated, carboxyl terminus aminated]”, where the note is “day 7, WT 37%”, the “proportion of GAP43+ TUBB3+ nerves in central cornea” value came out at 26%. Also, under “day 7, WT 43%”, the “proportion of GAP43+ nerves in central cornea” value is 50%. Moreover, where the note is “day 7, whole mount”, the “nerve density of central cornea relative to WT tissue” value is on record as 45 % of the nerve density of WT tissue. Also, where the note is “day 15”, the nerve density level entry is on record as “returning to that of WT cornea”. Besides, under “day 15, central corneal cross-sections”, the “innervation of epithelial cell layers (TUBB3+ axons)” value was “resembled that of WT tissue”. The “density of GAP43+ nerve fibers expressing SP and CGRP” value (day 15, whole mount cornea) is “nearly equivalent to that of the WT controls”.
